Results as given in patent US6486206B1, “Mechanical and pharmacologic therapies to treat cardiac arrest” (CPRx Inc., priority 1997, dated 2002).

Test system: porcine model of ventricular fibrillation
Settings: pigs, standard CPR, 2 minutes after drug administration
Experimental: Vital organ blood flow was also assessed after four minutes of ventricular fibrulation, four minutes of standard CPR, and two minutes after drug administration.

With `CNC[C@H](O)c1ccc(O)c(O)c1` [epinephrine] the “endocardial:epicardial ratio (mean±SEM)” value was 0.81±0.21.
